Where two headings read alike, the source gives them in different places.
How the values were obtained:
Mcl-1 [1] = molecular target: T1, Mcl-1 (Homo sapiens, UniProt Q07820); conditions: cited from earlier work
Target sequence in this assay (Q07820 whole entry): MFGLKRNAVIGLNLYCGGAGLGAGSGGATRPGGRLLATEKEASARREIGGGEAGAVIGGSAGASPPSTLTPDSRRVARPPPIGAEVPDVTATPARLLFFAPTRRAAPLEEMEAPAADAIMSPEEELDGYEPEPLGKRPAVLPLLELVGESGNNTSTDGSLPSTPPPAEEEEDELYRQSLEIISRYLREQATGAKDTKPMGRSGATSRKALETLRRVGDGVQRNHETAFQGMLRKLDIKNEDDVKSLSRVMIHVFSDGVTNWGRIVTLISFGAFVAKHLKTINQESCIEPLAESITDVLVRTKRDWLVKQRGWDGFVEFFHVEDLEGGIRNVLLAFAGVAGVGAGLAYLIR

A1/Bfl-1 = molecular target: T2, A1/Bfl-1 (Homo sapiens, UniProt Q16548); assay: FP-based binding assay, A1/Bfl-1; conditions: for Ki: read-out: A1/Bfl-1 Ki ± SD
T2 sequence (Q16548 1-151): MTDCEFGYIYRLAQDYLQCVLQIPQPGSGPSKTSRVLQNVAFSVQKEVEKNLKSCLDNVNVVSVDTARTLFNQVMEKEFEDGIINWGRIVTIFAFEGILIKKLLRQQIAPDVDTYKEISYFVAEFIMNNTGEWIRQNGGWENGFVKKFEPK

Bcl-w = molecular target: T3, Bcl-w (Homo sapiens, UniProt Q92843); assay: FP-based binding assay, Bcl-w; conditions: for Ki: competitive FP, FAM-BID 2 nM, protein 40 nM, read-out: Bcl-w Ki ± SD
T3 sequence (Q92843 1-155): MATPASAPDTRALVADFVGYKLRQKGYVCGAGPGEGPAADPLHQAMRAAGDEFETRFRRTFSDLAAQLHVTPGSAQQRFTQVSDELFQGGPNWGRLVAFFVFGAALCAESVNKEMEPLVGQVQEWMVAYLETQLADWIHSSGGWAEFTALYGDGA

[2] = molecular target: T4, cellular Mcl-1 protein (2LMP cell lysate) (Homo sapiens, UniProt Q07820); assay: Biotin-streptavidin pull-down with biotin-labeled Noxa BH3 peptide; type: binding
T4 construct: endogenous in cells; host or cells: 2LMP (subclone of MDA-MB-231) cell lysate
Method: Human breast cancer 2LMP cells, a subclone of the MDA-MB-231 cell line, were lysed in CHAPS buffer (10 mM HEPES (pH 7.4), 2.5 mM EDTA, 150 mM NaCl, 1.0% CHAP). Pre-cleared cell lysates were incubated with different concentrations of tested compounds, followed by incubation with biotinylated Noxa BH3 peptide (residues 18-43) and streptavidin-agarose beads to pull-down Mcl-1 protein bound to Noxa peptide. Beads were washed with CHAPS buffer, and Mcl-1 protein was eluted by boiling in SDS-PAGE sample buffer and analyzed by Western blotting using Mcl-1 antibody (Santa Cruz). DMSO alone was used as a control for nonspecific pull-down.

Mcl-1 [3] = molecular target: T1, Mcl-1; assay: FP-based binding assay, Mcl-1; conditions: for IC50: Flu-BID 2 nM, Mcl-1 90 nM, read-out: Mcl-1 IC50 ± SD; for Ki: read-out: Mcl-1 Ki ± SD
Target sequence in this assay (Q07820 171-327): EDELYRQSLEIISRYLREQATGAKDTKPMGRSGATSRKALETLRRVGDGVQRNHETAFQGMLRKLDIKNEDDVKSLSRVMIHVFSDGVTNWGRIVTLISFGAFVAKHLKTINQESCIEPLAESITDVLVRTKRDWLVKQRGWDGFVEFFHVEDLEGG

Bcl-xL = Bcl-xL (Homo sapiens, UniProt Q07817, DEL45-85); assay: FP-based binding assay, Bcl-xL; conditions: read-out: Bcl-xL Ki ± SD
Bcl-2 = molecular target: T5, Bcl-2 (Homo sapiens, UniProt P10415); assay: FP-based binding assay, Bcl-2; conditions: competitive FP, Flu-BID 2 nM, protein 60 nM; read-out: Bcl-2 Ki ± SD
T5 construct: His-tagged proteins containing; fused on or other part: A 16-residue segment of the flexible loop of Bcl-xL (BCL2L1, Q07817; given as residues 35 to 50) set into the Bcl-2 loop region; His tag with TEV site from the pHis-TEV vector

[4] = competitive FP, FAM-BID 1 nM, protein 4 nM
[5] = competitive FP, FAM-BID 2 nM, protein 50 nM
[6] = competitive FP, Ki calculated from IC50

Bcl-xL, sequence (Q07817 other isoform, or with tags, fused parts or gaps DEL45-85): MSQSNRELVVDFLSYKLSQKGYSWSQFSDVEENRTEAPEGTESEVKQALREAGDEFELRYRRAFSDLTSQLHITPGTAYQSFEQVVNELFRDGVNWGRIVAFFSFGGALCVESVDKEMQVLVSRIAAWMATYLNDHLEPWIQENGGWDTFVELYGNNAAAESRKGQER
T5 sequence (P10415 with tags, fused parts or gaps with the stated changes): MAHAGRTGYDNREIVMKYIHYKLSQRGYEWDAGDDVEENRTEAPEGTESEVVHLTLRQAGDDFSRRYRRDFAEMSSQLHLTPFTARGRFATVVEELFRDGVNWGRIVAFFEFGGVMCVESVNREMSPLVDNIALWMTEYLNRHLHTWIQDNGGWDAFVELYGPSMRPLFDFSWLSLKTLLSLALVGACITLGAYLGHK
T4 sequence (Q07820 whole entry): as the sequence (Q07820 whole entry) above

Structure (SMILES)	Ki (A1/Bfl-1; [4]) [µM]	Ki (Bcl-w) [µM]	fold improved binding to Mcl-1 compared to 2 (Mcl-1 [3]) [fold]	IC50 (Mcl-1 [3]; competitive FP) [µM]	Ki (Mcl-1 [3]) [µM]	Ki (A1/Bfl-1) [µM]	Ki (Bcl-xL) [µM]	Ki (Bcl-xL; [5]) [µM]	also measured
CN(C)CC[C@H](CSc1ccccc1)Nc1ccc(S(=O)(=O)NC(=O)c2ccc(N3CCN(Cc4ccccc4-c4ccc(Cl)cc4)CC3)cc2)cc1[N+](=O)[O-] [ABT-737]									binding to Mcl-1, result in words (Mcl-1 [1]): fails to bind to Mcl-1
O=C(O)CSc1cc(NS(=O)(=O)c2cccs2)c2ccccc2c1O [Compound 1, 2-((1-Hydroxy-4-(thiophene-2-sulfonamido)naphthalen-2-yl)thio)acetic acid]	6.14 ± 1	37.5 ± 7.96							disruption of BL-Noxa/cellular Mcl-1 interaction, result in words [2]: effectively disrupted
O=C(O)CSc1cc(NS(=O)(=O)c2ccc(-c3ccccc3)cc2)c2ccccc2c1O [Compound 14, 2-((4-([1,1′-Biphenyl]-4-ylsulfonamido)-1-hydroxynaphthalen-2-yl)thio)acetic acid]		1.92 ± 0.37	9	1.4 ± 0.36	0.37 ± 0.1	2.34 ± 0.37	8.05 ± 0.5		
O=C(O)CSc1cc(NS(=O)(=O)c2cccc(-c3ccccc3)c2)c2ccccc2c1O [Compound 15, 2-((4-([1,1′-Biphenyl]-3-ylsulfonamido)-1-hydroxynaphthalen-2-yl)thio)acetic acid]		2.19 ± 0.45	9	1.41 ± 0.17	0.38 ± 0.03	3.18 ± 0.41	15.1 ± 1.11		
O=C(O)CSc1cc(NS(=O)(=O)c2ccccc2-c2ccccc2)c2ccccc2c1O [Compound 16, 2-((4-([1,1′-Biphenyl]-2-ylsulfonamido)-1-hydroxynaphthalen-2-yl)thio)acetic acid]		4.41 ± 0.39	2	7.47 ± 1.47	2.03 ± 0.41	17.3 ± 0.56	48.1 ± 3.28		
O=C(O)CSc1cc(NS(=O)(=O)c2ccc(Oc3ccccc3)cc2)c2ccccc2c1O [Compound 18, 2-((1-Hydroxy-4-(4-phenoxyphenylsulfonamido)naphthalen-2-yl)thio)acetic acid]	3.36 ± 0.56	1.58 ± 0.35						10.6 ± 1.53	
O=C(O)CSc1cc(NS(=O)(=O)c2ccc(Br)cc2)ccc1O [Compound 22, 2-((5-(4-Bromophenylsulfonamido)-2-hydroxyphenyl)thio)acetic acid]	> 140	> 90		> 800				> 130	Ki (Mcl-1 [3]; [6]): > 200 µM; Ki (Bcl-2): > 200 µM
COC(=O)CSc1cc(NS(=O)(=O)c2ccc(Br)cc2)c2ccccc2c1O [Compound 29, Methyl 2-((4-(4-bromophenylsulfonamido)-1-hydroxynaphthalen-2-yl)thio)acetate]	> 140	> 90		18.6 ± 4.93				> 130	Ki (Mcl-1 [3]; [6]): 5.08 ± 1.35 µM; Ki (Bcl-2): 23.8 ± 5.08 µM
CC[C@H](C)[C@H](NC(=O)[C@H](CC(N)=O)NC(=O)[C@H](CCCNC(=N)N)NC(=O)[C@@H](NC(=O)[C@@H](NC(=O)[C@H](CC(=O)O)NC(=O)[C@H](CCC(=O)O)NC(=O)c1ccc2c(c1)C(=O)OC21c2ccc(O)cc2Oc2cc(O)ccc21)[C@@H](C)CC)[C@@H](C)CC)C(=O)N[C@@H](C)C(=O)N[C@@H](CCCNC(=N)N)C(=O)N[C@@H](Cc1c[nH]cn1)C(=O)N[C@@H](CC(C)C)C(=O)N[C@@H](C)C(=O)N[C@@H](CCC(N)=O)C(=O)N[C@H](C(=O)NCC(=O)N[C@@H](CC(=O)O)C(=O)N[C@@H](CO)C(=O)N[C@@H](CCSC)C(=O)N[C@@H](CC(=O)O)C(=O)N[C@@H](CCCNC(=N)N)C(=O)O)C(C)C [FAM-BID, reference compound]									Kd (A1/Bfl-1; saturation experiments, tracer 2 nM, read-out: Kd of fluorescent probe to A1/Bfl-1): 0.00083 ± 6e-05 µM; Kd (Bcl-w; saturation experiments, tracer 2 nM, read-out: Kd of fluorescent probe to Bcl-w): 0.0055 ± 0.0016 µM

Reference: US9486422B2, “Small molecule inhibitors of Mcl-1 and the uses of thereof” (THE REGENTS OF THE UNIVERSITY OF MICHIGAN, priority 2011, dated 2016)
